Data published in PubChem BioAssay (NCI).
Values joined by “and” are separate entries in the source; they are usually repeats but may differ in a detail not shown here. Identical values can stand only once.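 Following 48 hours of exposure in 96-well plates, responses at five concentrations were used to interpolate endpoints linearly. GI50 is the concentration that inhibits growth by half. TGI is the concentration that stops growth completely.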

Columns and labels:
Assay in all cases: growth of human tumour cells (NCI), 48 h
[1] = tested on: DU-145 prostate
[2] = tested on: EKVX NSCLC
[3] = tested on: HS 578T breast
[4] = tested on: MCF7 breast
[5] = tested on: MOLT-4 leukemia
[6] = tested on: OVCAR-4 ovarian
[7] = tested on: RXF 393 renal
[8] = tested on: SNB-19 CNS
[9] = tested on: TK-10 renal
[10] = tested on: UO-31 renal

SMILES	GI50 [1] [µM]	TGI [1] [µM]	GI50 [2] [µM]	TGI [2]	GI50 [3] [µM]	TGI [3] [µM]	GI50 [4]	TGI [4]	GI50 [5]	TGI [5]	GI50 [6]	TGI [6] [µM]	GI50 [7] [µM]	TGI [7]	GI50 [8]	TGI [8]	GI50 [9] [µM]	TGI [9] [µM]	GI50 [10]	TGI [10]
CCCCCCCCCCCCSC1=C(Cl)C(=O)C(OC)=C(OC)C1=O	11.2	31.5	1.61	> 29.5 µM	2.76	7.96	0.417 µM	7.12 µM	0.617 µM	18.6 µM	3.81 µM	26.6	4.51	23.1 µM	3.64 µM	15 µM	2.24	24.6	2.27 µM	11.5 µM
COc1cc(/C(=C2/O[C@@H]([C@H]3COC(C)(C)O3)[C@H]3OC(C)(C)O[C@@H]23)c2ccc3ccccc3c2)cc(OC)c1OC	4.33	> 100	5.59	> 100 µM	4.44	53.4	3.59 µM	14.4 µM	> 100 µM	> 100 µM	2.82 µM	8.02	2.54	5.99 µM	2.49 µM	6.08 µM	3.2	7.2	3.47 µM	> 100 µM
COc1ccc2c(c1)CC[C@@H]1[C@@H]2CC[C@]2(C)c3c(cc(C(=O)O)c4sccc34)C[C@@H]12	19.2	36.2	16.2	40.5 µM	28.7	96.1	17.2 µM	59 µM	10.1 µM	25.4 µM	26.3 µM	79.8	16.5	36 µM	17.8 µM	48.4 µM	19.2	48.1	20.2 µM	64.7 µM
CCCCCCn1c(-c2ccc(C(=O)O/N=C(\N)c3ccc4ccccc4c3)cc2)nc(-c2ccccc2)c1-c1ccccc1	> 100	> 100	6.73	> 100 µM	2.55	> 28.7	4.3 µM	> 100 µM	> 100 µM	> 100 µM	> 100 µM	> 100	5.28	29.7 µM	22.3 µM	> 100 µM	16	> 88.5	2.17 µM	> 100 µM
COC(=O)C1=COC(C)C2CN3CCc4c([nH]c5cc(OC)c(OC)cc45)C3CC12 (stereo not drawn)		> 100		> 100 µM		> 100	> 100 µM and 36.4 µM	> 100 µM		> 100 µM and 79.1 µM	89.4 µM and 34.3 µM	> 100		85.8 µM		> 100 µM		> 100		> 100 µM
Cc1ccc(-c2cc3c4c(nc5ccccc53)C(=O)c3cccnc3-c4n2)cc1	11.9	24.5	23.4	59.1 µM	18.3	43.8	1.85 µM	6.31 µM	0.583 µM	> 100 µM	15.6 µM	73.8	9.58	> 100 µM	13.2 µM	60.9 µM	26.4	97.3	17.1 µM	> 82.6 µM
O=C(/C(=C/c1ccc([N+](=O)[O-])cc1)SCc1ccc(Cl)cc1)c1ccc(F)cc1	13.8	> 57.3	3.78	15.2 µM	2.42	7.68	1.56 µM	4.78 µM	2.83 µM	> 100 µM	3.11 µM	13.9	5.75	18.3 µM	1.87 µM	4.11 µM	12.9	29.5	1.96 µM	13.6 µM
CCCCCCCCCCCC(=O)N1CCN(C(C)=O)CC1	35	> 100	33.5	> 100 µM	21.5	48.4	17.6 µM	32.8 µM	20.8 µM	47.8 µM	32.8 µM	> 100	15.4	33.4 µM	19.3 µM	40 µM	31	72.1	18.7 µM	42.6 µM
C[C@]12CC[C@@H]3c4cc(OC(F)F)c(OS(N)(=O)=O)cc4CC[C@H]3[C@@H]1CC[C@@H]2OS(N)(=O)=O	1.47	22.4	1.7	22.5 µM	1	16.1	1.09 µM	19.2 µM	1.06 µM	47.7 µM	5.33 µM	29.5	4.16	16.1 µM	1.48 µM	21.8 µM	13.6	49.1	1.42 µM	19.4 µM
COc1cc(-c2oc3c(OC)cc(OC)c(O)c3c(=O)c2OC)cc(OC)c1OC		> 100		> 100 µM		8.21		> 100 µM		> 100 µM		> 100		> 100 µM		> 100 µM		> 100		> 100 µM
O=C1NC2C(=CC(O)C(O)C2O)c2cc3c(cc21)OCO3 (stereo not drawn)		1.83	0.285	3.06 µM and 2.29 µM		0.55	0.0495 µM	0.854 µM and 4.46 µM	0.305 µM and 0.454 µM	0.511 µM and 1.24 µM	0.159 µM and 0.422 µM		0.589	0.805 µM and 1.43 µM and 2.16 µM	0.296 µM and 0.111 µM	0.832 µM and 2.12 µM	0.917	4.11	0.279 µM and 0.264 µM	2.29 µM and 2.41 µM
O=[N+]([O-])c1ccc(C2=Nn3c(nnc3-c3ccc(Cl)cc3)SC2)o1		39.6		23.9 µM		18.4		4.05 µM		8.59 µM		6.66		21.6 µM		29.9 µM		29.7		15.4 µM
N/C(=N/N=C/c1ccccc1)N/N=C\c1ccccc1	5.54	92.7	7.59	> 100 µM	3.73	42.5	3.4 µM	> 100 µM	4.39 µM	47.3 µM	19.6 µM	> 100	2.46	8.48 µM	> 100 µM	> 100 µM	10.7	> 100	5.1 µM	78.3 µM
S=C(NCCNC(=S)[S][Sn]([c]1ccccc1)([c]1ccccc1)[c]1ccccc1)[S][Sn]([c]1ccccc1)([c]1ccccc1)[c]1ccccc1	0.0181	0.0542	0.0304	0.129 µM	0.0564	0.461	0.0133 µM	0.0553 µM	0.0222 µM	0.309 µM	0.0212 µM	0.0805	0.01	0.0206 µM	0.0638 µM	0.139 µM	0.0612	0.126	0.0337 µM	0.1 µM
CCN1C(=O)N(CC)C2C1NN=c1s/c(=C\c3ccco3)c(=O)n12 (stereo not drawn)	0.703	> 100	1.7	> 100 µM	0.459	> 100	0.361 µM	> 100 µM	0.824 µM	> 100 µM	4.24 µM	> 100	0.558	> 23.4 µM	0.741 µM	> 100 µM	19.7	> 100	0.852 µM	> 100 µM
CC1=NN(c2ccc(S(=O)(=O)O)cc2)C(=O)/C1=C/c1ccc(Cl)cc1		> 100		> 100 µM		> 100		> 100 µM		> 100 µM		> 100		> 100 µM		> 100 µM		> 100		> 100 µM
C[C@@H]1CCC([C@@H](C)[C@H]2CC[C@H]3[C@@H]4CC[C@H]5C[C@@H](O)CC[C@]5(C)[C@H]4CC[C@]23C)=NC1		> 100		> 100 µM		> 100		> 54.8 µM		> 66 µM		> 100		> 100 µM		> 100 µM		> 100		46.3 µM
CC1(C)CC[C@]2(C(=O)O)CC[C@]3(C)C(=CC[C@@H]4[C@@]5(C)C[C@H](O)[C@H](O)[C@@](C)(C(=O)O)[C@@H]5CC[C@]43C)[C@@H]2C1		> 100		> 100 µM		> 100		> 100 µM		> 100 µM		> 100		> 100 µM		> 100 µM		> 100		> 100 µM
CCCCCCCCC/C(=N\NC(=O)c1ccncc1)c1ccc(O)c(O)c1O	0.274	> 100	0.244	> 100 µM		> 100	0.309 µM	18.3 µM	0.246 µM	25.3 µM	0.12 µM	18	0.168	5.2 µM	0.272 µM	> 100 µM	0.196	> 100	0.0745 µM	> 29.3 µM
COc1ccc2c(c1)oc(=O)c1cc(OC)ccc12	> 100	> 100	8.99	> 100 µM	> 100	> 100	> 100 µM	> 100 µM	> 100 µM	> 100 µM	> 100 µM	> 100	> 100	> 100 µM	> 100 µM	> 100 µM	> 100	> 100	32.9 µM	> 100 µM
O=C([O][Hg][CH2]C1OCCOC1[CH2][Hg][O]C(=O)c1ccccc1)c1ccccc1 (stereo not drawn)	16.1	29.6	18.3	35.5 µM	16.1	43.9	1.97 µM	24.4 µM	2.13 µM	5.37 µM	6.07 µM	12.7	2.08	4.06 µM	16.5 µM	30.8 µM	1.91	3.35	1.79 µM	3.27 µM
